The subject of one test is P. aeruginosa. In words: killing efficiency / minimum bactericidal concentration. Type of test: cell-based, Pseudomonas aeruginosa. The following applies: single agent. As for the experimental part:
Procedure for hydrogels: E. coli, P. aeruginosa, S. aureus and C. albicans were obtained from ATCC and reconstituted from its lyophilized form according to the manufacturer's protocol. Bacterial samples were cultured in Tryptic Soy Broth (TSB) solution at 37° C. under constant shaking of 300 rpm. C. albicans was culture in yeast medium at room temperature under constant shaking of 70 rpm. Prior to treatment, the bacterial sample was first inoculated and cultured to enter into log growth phase. To prepare the antimicrobial hydrogels, cationic polymer was first dissolved in filtered HPLC water in a bio-hood. […] For instance, cationic polymer VE/BnCl(1:30) or cationic polymer VE/PrBr(1:30) was dissolved by using sterile HPLC grade water to form a polymer solution at various concentrations. This solution was then used to dissolve […]1.25 to form a 4 wt. % hydrogel containing various concentrations of the cationic polymers. […] The concentration of bacterial solution was adjusted to give an initial optical density (O.D.) reading of approximately 0.07 at 600 nm wavelength on a microplate reader (TECAN, Switzerland), which corresponds to the concentration of McFarland 1 solution (3×10^8 CFU/mL). […] The plates were incubated for 24 hours at 37° C. and the number of colony-forming units (CFU) was counted. […]

A further test has as its system C. albicans. As to the kind of experiment: killing efficiency of solutions. The class given is cell-based, Candida albicans. The following applies: solution, fluconazole at 5.0 mg/L. As for the experimental part:
A stock solution of cationic polymer VE/PrBr(1:15) (5 mg) in sterile HPLC grade water (10 mL) was prepared having a final concentration of 500 mg/L (500 ppm). A second stock solution of fluconazole (1 mg) in sterile HPLC grade water (100 mL) was prepared having a final concentration of 10 mg/L (10 ppm). Three solutions were prepared: (1) cationic polymer alone at 1.0MIC=250 mg/L (250 ppm) against C. albicans, (2) A cationic polymer/fluconazole solution containing VE/PrBr(1:15) at 0.5MIC=125 mg/L (125 ppm) against C. albicans and fluconazole at 2.5 mg/L (2.5 ppm), and (3) fluconazole alone at 5.0 mg/L (5 ppm). Formulation (2) was obtained by combining […] each of the stock solutions of cationic polymer and fluconazole and diluting the resulting solution with 750 microliters of sterile HPLC grade water.

The values that follow come from patent US9987369B2, “Vitamin functionalized gel-forming block copolymers for biomedical applications” (INTERNATIONAL BUSINESS MACHINES CORPORATION, priority 2016, dated 2018).

Turning to Doxycycline [DXY], the “MBC against P. aeruginosa” value against P. aeruginosa is 20 to 30 µg/mL.

Regarding `OC(Cn1cncn1)(Cn1cncn1)c1ccc(F)cc1F` [fluconazole, Fluconazole], the “killing efficiency against C. albicans” value in the test on C. albicans came to 93.53%.
